Source: patent US6428974B1, “Microplate for drug susceptibility testing containing a drug, a color reagent, and color suppressant” (Kanto Kagaku Kabushiki Kaisha, priority 1998, dated 2002)
≈ marks a conversion by molar mass, not a printed value.

Key:
[1] = tested on: Candida albicans ATCC 24433; experiment: Turbidity method (Japanese Society for Medical Mycology microdilution); assay type: cell-based; conditions: C. albicans ATCC 24433, range over repeated tests (n = 10); for MIC: Candida albicans, ATCC24433
Description: (§1) For the comparison was used the 1.2% glucose MOPS buffered RPMI 1640medium and it was carried out according to the proposed method of Japanese Society for Medical Mycology (the microdilution method of 0.2 ml incubation system).

[2] = tested on: Candida albicans ATCC 90028; experiment: as above; assay type: cell-based; conditions: C. albicans ATCC 90028, range over repeated tests (n = 10); for MIC: Candida albicans, ATCC90028
Description: as §1

Candida krusei ATCC 6258 [3] = experiment: as above; assay type: cell-based; conditions: C. krusei ATCC 6258, range over repeated tests (n = 10); for MIC: Pichia kudriavzevii, ATCC6258
Description: as §1

[4] = tested on: Candida parapsilosis ATCC 22019; experiment: as above; assay type: cell-based; conditions: C. parapsilosis ATCC 22019, range over repeated tests (n = 10); for MIC: Lodderomyces parapsilosis, ATCC22019
Description: as §1

[5] = tested on: Candida parapsilosis ATCC 90018; experiment: as above; assay type: cell-based; conditions: C. parapsilosis ATCC 90018, range over repeated tests (n = 7); for MIC: Lodderomyces parapsilosis, ATCC90018
Description: as §1

[6] = tested on: Candida tropicalis ATCC 750; experiment: as above; assay type: cell-based; conditions: C. tropicalis ATCC 750, range over repeated tests (n = 10); for MIC: Candida tropicalis, ATCC750
Description: as §1

[7] = tested on: Candida albicans ATCC 24433; experiment: Microplate method of the invention (WST-8 color reagent); assay type: cell-based; conditions: C. albicans ATCC 24433, range over repeated tests (n = 10), AMPH complete inhibition, 5-FC/FLCZ/MCZ IC80, 24 or 48 hrs, 35°C; for MIC: Candida albicans, ATCC24433
Description: (§2) Four drugs of AMPH, 5-FC, FLCZ and MCZ were considered. The drug solution for the solid phase formation on the microplate was prepared as follows. The drug was dissolved in dimethylsulfoxide (DMSO) or diluted by using it. The solution was prepared so that it was AMPH 128 μg/ml, 5-FC 512 μg/ml, FLCZ 512 μg/ml or MCZ 256 μg/ml. By the use of the prepared drug the two fold dilution series was prepared in an appropriate concentration range with DMSO or water, and separately infused by 25 μl/well and formed into the dry and solid phase under vacuum (13.3-26.6 Pa) for 24 hrs. After the solid phase formation of the antifungal, the color reagent consisting of WST-8 0.7 mM, 1-methoxy PMS 3.5 μM, potassium ferricyanide 0.5 mM and potassium ferrocyanide 0.5 mM was separately infused by 20 μl/well and formed into the dry and solid phase under vacuum for 24 hrs.
(§3) By using the colony within 24 hrs. in the incubation was prepared the fungal suspension with the sterile saline 5 ml. The fungal suspension corresponding to McFarland # 0.5 was prepared by measuring the absorbancy at the wave length of 530 nm. 0.1 ml of the prepared fungal suspension was taken by the micropipette, added to 0.9 ml of the 1.2% glucose MOPS buffered PRMI 1640 medium, and stirred thoroughly by the vortex-mixer, and then 0.1 ml of this was taken by the micropipette, added to 20 ml of the […] MOPS buffered PRMI 1640 medium, and stirred thoroughly by the vortex-mixer to prepare the replicated fungal suspension (0.5×10^3−2.5×10^3 cfu/ml). The replicated fungal suspension prepared was separately inoculated by 200 μl into each well of the microplate dryly fixed with the drug having the concentration gradient of the two fold dilution prepared in the above B. After lidding the plate the aerobic culture was done at 35±1° C. The absorbancy at 630 nm of the growth control (the testing fungal strains were incubated in the well wherein the antifungal agents and the color reagent was not formed into the solid phase) after the 24 hrs. incubation was measured.
(§4) After stirring the microplate under shaking for 1 min., the absorbency of the dominant wave length 450 nm and the complementary wavelength 630 nm was measured, and the reading was carried out by the following method.
(§5) 1. The minimum concentration showing the absorbancy in AMPH equal to or less than that in the negative control was made the minimum growth inhibition concentration (MIC).
(§6) 2. The 80% growth inhibition concentration (IC 80) was read in 5-Fc, FLCZ and MCZ. The drug concentration of the well showing the absorbancy equal to or less than the absorbency obtained by the following equation was made MIC.
(§7) (IC80=(positive control−negative control)×0.2 +negative control)

[8] = tested on: Candida albicans ATCC 90028; experiment: as above; assay type: cell-based; conditions: C. albicans ATCC 90028, range over repeated tests (n = 10), AMPH complete inhibition, 5-FC/FLCZ/MCZ IC80, 24 or 48 hrs, 35°C; for MIC: Candida albicans, ATCC90028
Description: as §2, §3, §4, §5, §6, §7

Candida krusei ATCC 6258 [9] = experiment: as above; assay type: cell-based; conditions: C. krusei ATCC 6258, range over repeated tests (n = 10), AMPH complete inhibition, 5-FC/FLCZ/MCZ IC80, 24 or 48 hrs, 35°C; for MIC: Pichia kudriavzevii, ATCC6258
Description: as §2, §3, §4, §5, §6, §7

[10] = tested on: Candida parapsilosis ATCC 22019; experiment: as above; assay type: cell-based; conditions: C. parapsilosis ATCC 22019, range over repeated tests (n = 10), AMPH complete inhibition, 5-FC/FLCZ/MCZ IC80, 24 or 48 hrs, 35°C; for MIC: Lodderomyces parapsilosis, ATCC22019
Description: as §2, §3, §4, §5, §6, §7

[11] = tested on: Candida parapsilosis ATCC 90018; experiment: as above; assay type: cell-based; conditions: C. parapsilosis ATCC 90018, range over repeated tests (n = 7), AMPH complete inhibition, 5-FC/FLCZ/MCZ IC80, 24 or 48 hrs, 35°C; for MIC: Lodderomyces parapsilosis, ATCC90018
Description: as §2, §3, §4, §5, §6, §7

[12] = tested on: Candida tropicalis ATCC 750; experiment: as above; assay type: cell-based; conditions: C. tropicalis ATCC 750, range over repeated tests (n = 10), AMPH complete inhibition, 5-FC/FLCZ/MCZ IC80, 24 or 48 hrs, 35°C; for MIC: Candida tropicalis, ATCC750
Description: as §2, §3, §4, §5, §6, §7

[13] = tested on: Candida parapsilosis ATCC 22019; conditions: C. parapsilosis ATCC 22019; MIC acceptable range of NCCLS M27-A; cited from earlier work
Candida krusei ATCC 6258 [14] = conditions: C. krusei ATCC 6258; MIC acceptable range of NCCLS M27-A; cited from earlier work
[15] = tested on: Candida albicans ATCC 90028; conditions: C. albicans ATCC 90028; MIC acceptable range of NCCLS M27-A; cited from earlier work
[16] = tested on: Candida albicans ATCC 24433; conditions: C. albicans ATCC 24433; MIC acceptable range of NCCLS M27-A; cited from earlier work
[17] = tested on: Candida parapsilosis ATCC 90018; conditions: C. parapsilosis ATCC 90018; MIC acceptable range of NCCLS M27-A; cited from earlier work
[18] = tested on: Candida tropicalis ATCC 750; conditions: C. tropicalis ATCC 750; MIC acceptable range of NCCLS M27-A; cited from earlier work

Row | Compound | MIC [1] [µg/mL] | MIC [2] [µg/mL] | MIC (Candida krusei ATCC 6258 [3]) [µg/mL] | MIC [4] [µg/mL] | MIC [5] [µg/mL] | MIC [6] [µg/mL] | MIC [7] [µg/mL] | MIC [8] [µg/mL] | MIC (Candida krusei ATCC 6258 [9]) [µg/mL] | MIC [10] [µg/mL] | MIC [11] [µg/mL] | MIC [12] [µg/mL] | MIC reference range [13] [µg/mL] | MIC reference range (Candida krusei ATCC 6258 [14]) [µg/mL] | MIC reference range [15] [µg/mL] | MIC reference range [16] [µg/mL] | MIC reference range [17] [µg/mL] | MIC reference range [18] [µg/mL] | other results
1 | Nc1[nH]c(=O)ncc1F [5-FC, Flucytosine] | 0.5 to 2 (≈ 3.87 to 15.5 µM) | 0.25 to 2 (≈ 1.94 to 15.5 µM) | 8 to 16 (≈ 62 to 124 µM) | 0.12 to 0.5 (≈ 0.93 to 3.87 µM) | 0.12 (≈ 0.93 µM) | 0.12 (≈ 0.93 µM) | 0.5 to 2 (≈ 3.87 to 15.5 µM) | 0.25 to 1 (≈ 1.94 to 7.75 µM) | 8 to 16 (≈ 62 to 124 µM) | 0.12 to 0.5 (≈ 0.93 to 3.87 µM) | 0.12 (≈ 0.93 µM) | 0.12 (≈ 0.93 µM) | 0.12 to 0.5 | 4.0 to 16 | 0.5 to 2.0 | 1.0 to 4.0 | 0.12 to 0.25 | 0.12 to 0.25 | 
2 | C[C@@H]1[C@H](O)[C@@H](C)/C=C/C=C/C=C/C=C/C=C/C=C/C=C/[C@H](O[C@@H]2O[C@H](C)[C@@H](O)[C@H](N)[C@@H]2O)C[C@@H]2O[C@](O)(C[C@@H](O)C[C@@H](O)[C@H](O)CC[C@@H](O)C[C@@H](O)CC(=O)O[C@H]1C)C[C@H](O)[C@H]2C(=O)O [AMPH, Amphotericine B] |  |  |  |  |  |  |  |  |  |  |  |  | 0.25 to 1.0 | 0.5 to 2.0 | 0.5 to 2.0 | 0.25 to 1.0 | 0.5 to 2.0 | 0.5 to 2.0 | MIC, Turbidity method [1]: 0.12 to 0.5 µg/mL; MIC, Turbidity method [2]: 0.12 to 0.5 µg/mL; MIC, Turbidity method (Candida krusei ATCC 6258 [3]): 0.12 to 0.5 µg/mL; MIC, Turbidity method [4]: 0.06 to 0.25 µg/mL; MIC, Turbidity method [5]: 0.12 to 0.25 µg/mL; MIC, Turbidity method [6]: 0.12 to 0.5 µg/mL; MIC, Method of the invention [7]: 0.12 to 0.5 µg/mL; MIC, Method of the invention [8]: 0.12 to 0.5 µg/mL; MIC, Method of the invention (Candida krusei ATCC 6258 [9]): 0.25 to 0.5 µg/mL; MIC, Method of the invention [10]: 0.12 to 1.0 µg/mL; MIC, Method of the invention [11]: 0.12 to 0.25 µg/mL; MIC, Method of the invention [12]: 0.12 to 0.5 µg/mL
3 | OC(Cn1cncn1)(Cn1cncn1)c1ccc(F)cc1F [FLCZ, Fluconazole] | 0.12 to 1 (≈ 0.392 to 3.27 µM) | 0.12 to 0.25 (≈ 0.392 to 0.816 µM) | 8 to 64 (≈ 26.1 to 209 µM) | 1 to 2 (≈ 3.27 to 6.53 µM) | 0.5 (≈ 1.63 µM) | 0.5 to 1 (≈ 1.63 to 3.27 µM) | 0.25 to 8 (≈ 0.816 to 26.1 µM) | 0.25 to 1 (≈ 0.816 to 3.27 µM) | 16 to 64 (≈ 52.2 to 209 µM) | 2 to 4 (≈ 6.53 to 13.1 µM) | 0.5 to 2 (≈ 1.63 to 6.53 µM) | 0.5 to 2 (≈ 1.63 to 6.53 µM) | 2.0 to 8.0 | 16 to 64 | 0.25 to 1.0 | 0.25 to 1.0 | 0.25 to 1.0 | 1.0 to 4.0 | 
4 | Clc1ccc(COC(Cn2ccnc2)c2ccc(Cl)cc2Cl)c(Cl)c1 (stereo not drawn) [MCZ, Miconazole] | 0.06 to 0.5 (≈ 0.144 to 1.2 µM) | 0.06 to 0.12 (≈ 0.144 to 0.288 µM) | 0.25 to 1 (≈ 0.601 to 2.4 µM) | 0.25 to 0.5 (≈ 0.601 to 1.2 µM) | 0.06 to 0.25 (≈ 0.144 to 0.601 µM) | 0.12 to 1 (≈ 0.288 to 2.4 µM) | 0.06 to 1 (≈ 0.144 to 2.4 µM) | 0.06 to 0.12 (≈ 0.144 to 0.288 µM) | 0.25 to 1 (≈ 0.601 to 2.4 µM) | 0.5 to 1 (≈ 1.2 to 2.4 µM) | 0.12 to 0.5 (≈ 0.288 to 1.2 µM) | 0.25 to 2 (≈ 0.601 to 4.81 µM) |  |  |  |  |  |  | 
